Measurements as given in patent publication US10585087B2, “Method for evaluating and selecting agent for suppressing odors of sulfide compounds” (KAO CORPORATION, priority 2015, dated 2020).

Assays:
olfactory receptor OR4S2 [1] = molecular target: T1, olfactory receptor OR4S2 (Homo sapiens, UniProt Q8NH73); experiment: Luciferase reporter gene assay: suppression of OR4S2 response to DMDS or DMTS by test substance; type: cell-based; details: for response (Fold increase) of OR4S2 to DMTS in the presence of test substance: 300 μM DMTS, test substance 100 μM, FIG. 6; for response (Response %) of OR4S2 to DMDS in the presence of test substance: 1 mM DMDS, test substance 0 to 3000 μM, FIG. 5
T1 construct: expressed in transfected cells; host or cells: HEK293
T1 sequence (Q8NH73 1-311): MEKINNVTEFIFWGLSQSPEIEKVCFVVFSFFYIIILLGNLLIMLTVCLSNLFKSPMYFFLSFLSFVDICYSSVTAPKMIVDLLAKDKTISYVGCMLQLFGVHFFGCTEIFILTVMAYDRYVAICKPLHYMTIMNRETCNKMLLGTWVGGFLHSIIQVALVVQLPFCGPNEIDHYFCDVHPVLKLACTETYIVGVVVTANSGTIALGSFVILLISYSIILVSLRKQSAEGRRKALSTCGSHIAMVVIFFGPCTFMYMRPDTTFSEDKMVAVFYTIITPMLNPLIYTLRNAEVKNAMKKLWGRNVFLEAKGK
Description: By using the same procedure as in Example 1 (1) to (3), HEK293 cells expressing OR4S2 (SEQ ID NO: 2) were prepared. The response of the olfactory receptor to DMDS (the value fLuc/hRluc) was measured in the presence and absence of a test substance by using luciferase reporter gene assay in accordance with the procedure in Example 1 (4). The value fLuc/hRluc induced by a stimulus of single DMDS, (X), the value fLuc/hRluc for cells without a stimulus of DMDS, (Y), and the value fLuc/hRluc induced by a co-stimulus of DMDS and a test substance, (Z), were determined, and the intensity of the response (Response (%)) of the receptor to DMDS in the presence of a test substance was determined by using the following formula. Response (%)=(Z−Y)/(X−Y)×100 The experiment was performed independently three times, and the average value of the experiments was determined. The concentration of DMDS to be added to a culture was set at 1 mM, and the concentration of a test substance to be added was changed in the range of from 0 to 3000 μM.
For the response to DMTS, the value fLuc/hRluc to a stimulus of single DMTS, (X′), was divided by the value fLuc/hRluc for cells without a stimulus of DMTS, (Y), and the value obtained by the division, (X′/Y), was set as a value of the response to DMTS (Fold increase). To compare the effect of a test substance on the response to DMTS, the value fLuc/hRluc induced by a co-stimulus of DMTS and a test substance, (Z′), was similarly divided by the value fLuc/hRluc for cells without a stimulus, (Y), to calculate (Z′/Y) as Fold increase. The experiment was performed independently three times, and the average value of the experiments was determined. The concentration of DMTS to be added to a culture was set at 300 μM, and the concentration of a test substance to be added was set at 100 μM.

[2] = Sensory test of odor-suppressing effect for sulfide compounds; type: in vivo; details: for odor intensity of DMTS in sensory test: 0.01% (v/v) DMTS and 0.1% (v/v) test substance in mineral oil, 11 evaluators, FIG. 7B; for odor intensity of DMDS in sensory test: 0.1% (v/v) DMDS and 0.1% (v/v) test substance in mineral oil, 10 evaluators, FIG. 7A
Description: For each of DMDS, cis-4-heptenal, and 1,4-cineol, a 0.1% (v/v) solution in mineral oil was prepared. For DMTS, a 0.01% (v/v) solution in mineral oil was prepared. Two cotton balls were put in a 20 mL glass bottle (Maruemu Corporation, No. 6), and one cotton ball was impregnated with 30 μL of the DMDS or DMTS solution, and the other cotton ball was impregnated with 30 μL a solution of one of the OR4S2 antagonists. The glass bottle containing the cotton balls was covered with a lid, and left to stand at 37° C. for 1 hour, and thereafter used as a test sample for a sensory test. Glass bottles containing only a cotton ball impregnated with the DMDS or DMTS solution were prepared as reference samples, and a glass bottle containing only a cotton ball impregnated with mineral oil (Vehicle) was prepared as a control sample.
A sensory test was performed in a single-blinded mode with 10 evaluators for DMDS and 11 evaluators for DMTS. The test was initiated after two o'clock pm, which was 1.5 hours or longer after a meal. To prevent diffusion of a smell, the test was performed essentially under a fume hood. To eliminate the influence of adaptation to odors of sulfide compounds, the evaluators were appropriately checked for the intensity of recognition to the odor of DMDS or DMTS in the test, and rested as necessary. The evaluators were separated into two groups, and one group evaluated the odor-suppressing effect for DMDS or DMTS with respect to cis-4-heptenal and 1,4-cineol, in the order presented, and the other group evaluated it with respect to 1,4-cineol and cis-4-heptenal, in the order presented. Each test sample was replaced with another one after evaluation by each of three evaluators.
In evaluation of odors of test samples, the following criteria in five grades were set for each evaluator: “odor of DMDS (or DMTS) was 1: unidentifiable, 2: perceivable, 3: easily identifiable, 4: strong, 5: intolerably strong”, and the evaluators rated the odor intensity of DMDS (or DMTS) for each test sample in nine grades from 1.0 to 5.0 at an interval of 0.5, where the odor intensity of single DMDS (or DMTS) was assumed as 3. The average value of the evaluation results by the evaluators was determined.

olfactory receptor OR4S2 [3] = molecular target: T1, olfactory receptor OR4S2; experiment: Luciferase reporter gene assay: response of olfactory receptor to sulfide compound; type: cell-based; details: for response of olfactory receptor OR4S2 (fold increase) in screen of 428 olfactory receptors / concentration dependence of the response of OR4S2: HEK293 cells expressing OR4S2; for response of olfactory receptor OR4S2 (fold increase) in screen of 428 olfactory receptors: 100 μM sulfide compound, FIG. 1; for concentration dependence of the response of OR4S2: different concentrations, FIG. 2
Excerpt: A human olfactory receptor was cloned by using the PCR method with human genomic DNA (G1521: Promega Corporation) as a template on the basis of sequence information registered in GenBank. Each gene amplified through the PCR method was incorporated into a pENTR vector (Invitrogen) in accordance with the manual, and recombined, by utilizing the NotI and AscI sites present in the pENTR vector, with a pME18S vector at the NotI and AscI sites produced in the downstream of the Flag-Rho tag sequence of the pME18S vector.
An RTP1S gene (SEQ ID NO: 3) encoding RTP1S (SEQ ID NO: 4) was incorporated into the pME18S vector at the EcoRI and XhoI sites thereof.
HEK293 cells expressing any one of 428 human olfactory receptors were produced. A reaction solution with a composition shown in Table 2 was prepared and left to stand in a clean bench for 15 minutes, and then added to each well of a 96-well plate (BD Biosciences). Subsequently, 90 μL of HEK293 cells (3×10^5 cells/cm^2) was seeded in each well, and cultured in an incubator retained at 37° C. and 5% CO2 for 24 hours. As a control, cells with conditions for no expression of an olfactory receptor (Mock) were prepared and used in an experiment.
An olfactory receptor expressed on HEK293 cells increases the intracellular cAMP level through conjugation with the intracellular Gαs followed by resulting activation of adenylate cyclase. For smell response measurement in this study, luciferase reporter gene assay was used in which increase of the intracellular cAMP level is monitored as an emission value derived from a firefly luciferase gene (fluc2P-CRE-hygro). Transgenesis was simultaneously performed by using a product with a sea pansy luciferase gene fused to the downstream of the CMV promoter (hRluc-CMV), and the resultant was used as an internal standard to correct errors of transgenesis efficiency and the number of cells.
The medium was removed from the culture prepared in the above (3), and 75 μL of a solution containing a sulfide compound prepared with DMEM (NACALAI TESQUE, INC.) was added. The sulfide compound was 100 μM of dimethyl disulfide (DMDS) or dimethyl trisulfide (DMTS). The cells were cultured in a CO2 incubator for 3 hours to allow the luciferase gene to be sufficiently expressed in the cells. Measurement of the activity of luciferase was performed by using a Dual-Glo™ luciferase assay system (Promega Corporation) in accordance with an operation manual of the product. For each stimulus condition, the value fLuc/hRluc was calculated by dividing the emission value derived from firefly luciferase by the emission value derived from sea pansy luciferase. The value fLuc/hRluc derived from firefly luciferase and induced by a stimulus of a sulfide compound was divided by the value fLuc/hRluc for cells without a stimulus of a sulfide compound to calculate a fold increase, and the fold increase was used as an indicator of intensity of response.

SMILES	response (Fold increase) of OR4S2 to DMTS in the presence of test substance (olfactory receptor OR4S2 [1])	response (Response %) of OR4S2 to DMDS in the presence of test substance (olfactory receptor OR4S2 [1])	odor intensity of DMTS in sensory test [2]	odor intensity of DMDS in sensory test [2]	response of olfactory receptor OR4S2 (fold increase) in screen of 428 olfactory receptors (olfactory receptor OR4S2 [3])	concentration dependence of the response of OR4S2 (olfactory receptor OR4S2 [3])	also measured
CC(C)C12CCC(C)(CC1)O2 [1,4-cineol, 1,4-Cineole]	suppressed the response of OR4S2 to DMTS	suppressed the response of OR4S2 to DMDS in a concentration-dependent manner	suppressed the odor intensity	suppressed the odor intensity	–	–	–
CSSC [DMDS, Dimethyl disulfide]	–	–	–	–	exhibits a specific response	in a concentration-dependent manner	–
CSSSC [DMTS, Dimethyl trisulfide]	–	–	–	–	exhibits a specific response	in a concentration-dependent manner	–
CC/C=C\CCC=O [cis-4-Heptenal, (Z)-Hept-4-enal]	suppressed the response of OR4S2 to DMTS	suppressed the response of OR4S2 to DMDS in a concentration-dependent manner	suppressed the odor intensity	suppressed the odor intensity	–	–	–
CSC [dimethyl sulfide (DMS), Dimethylsulfide]	–	–	–	–	–	–	response of OR4S2 (olfactory receptor OR4S2 [3]; concentration of 1 mM and 3 mM, FIG. 3): responded
CS [methylmercaptan, Methylmercaptan]	–	–	–	–	–	–	response of OR4S2 (olfactory receptor OR4S2 [3]; 3 mM, FIG. 4): did not respond
